Experimental findings from ChEMBL document CHEMBL4229557, “Synthesis and SAR of new isoxazole-triazole bis-heterocyclic compounds as analogues of natural lignans with antiparasitic activity” (Bioorg Med Chem, 2018) are described below.

Active and inactive are the calls of the source. No cut-off for these calls is given here.

In data set [1] the test system is Leishmania amazonensis. Briefly: Growth inhibition of Leishmania amazonensis MHOM/BR/77/LTB0016 amastigote forms expressing beta-galactosidase infected in human THP1 cells at 100 uM by colorimetrc assay relative to control. Type of data set: functional.
The subject of data set [2] is Trypanosoma cruzi. Briefly: Growth inhibition of Trypanosoma cruzi Tulahuen amastigote forms infected in human THP1 cells at 100 uM after 72 hrs by beta-galactosidase reporter gene assay relative to control. Type of data set: functional. The conditions noted are these: THP-1, 72 h, read-out: GI. On the technique in general: In a reporter assay the amount or activity of a reporter protein is the signal.

Data set [3] deals with Trypanosoma cruzi. The data set can be described thus: Growth inhibition of Trypanosoma cruzi Tulahuen amastigote forms infected in human THP1 cells after 72 hrs by beta-galactosidase reporter gene assay. In kind it is functional.
Data set [4] is described as follows: Selectivity index, ratio of CC50 for human THP1 cells to GI50 for Trypanosoma cruzi Tulahuen amastigote forms infected in human THP1 cells. In kind it is toxicity, cell-based. The conditions noted are these: read-out: Selectivity Index.
Data set [5] has as its target Trypanothione reductase (Trypanosoma cruzi) (UniProt P28593). Briefly: Inhibition of Trypanosoma cruzi Trypanothione reductase expressed in Escherichia coli BL21(DE3) at 100 uM using T(S)2 as substrate incubated for 30 mins measured for 30 mins in presence of NADPH by DTNB reagent based assay relative to control.
Data set [6] in a line: Cytotoxicity against human THP1 cells after 72 hrs by MTT assay. Type of data set: cell-based. The conditions noted are these: THP-1 cells. (Formazan colour is commonly taken as a measure of viable cells.)

Sequence of Trypanothione reductase (Trypanosoma cruzi) (P28593 whole entry, looked up): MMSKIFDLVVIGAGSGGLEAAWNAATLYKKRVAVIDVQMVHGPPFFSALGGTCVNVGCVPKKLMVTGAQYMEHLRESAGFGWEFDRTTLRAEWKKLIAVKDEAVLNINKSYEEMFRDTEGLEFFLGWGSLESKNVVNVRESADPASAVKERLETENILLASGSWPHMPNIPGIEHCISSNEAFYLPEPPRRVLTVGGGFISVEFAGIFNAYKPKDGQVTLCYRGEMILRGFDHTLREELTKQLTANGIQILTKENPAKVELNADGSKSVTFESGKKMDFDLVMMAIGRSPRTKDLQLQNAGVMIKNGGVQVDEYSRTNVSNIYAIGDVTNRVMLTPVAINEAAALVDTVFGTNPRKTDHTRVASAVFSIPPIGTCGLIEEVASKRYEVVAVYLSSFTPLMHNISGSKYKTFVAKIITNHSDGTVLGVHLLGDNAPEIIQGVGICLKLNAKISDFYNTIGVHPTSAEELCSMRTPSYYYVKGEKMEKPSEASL

As a reminder, the GI50 is the concentration at which growth is held to half of that of the control. For `OCc1ccc(-c2cn(Cc3cc(-c4ccccc4)no3)nn2)cc1`, the “growth inhibition (GI)” value in data set [1] was “inactive”. Besides, the inhibition of growth at 100 µM in data set [2] worked out at 0%. The GI50 entry in data set [3] was “inactive”.
In general, inhibition refers to how much of the control response was suppressed. In general, CC50 refers to the concentration at which the toxic effect on the cells reaches its halfway point. The low end stands for greater toxicity to the cells, the high end for lower toxicity to the cells. For the molecule `COc1ccc(-c2cc(Cn3cc(-c4cc(C)c(C)cc4C)nn3)on2)cc1OC`, the “growth inhibition (GI)” value in data set [1] was “inactive”. The inhibition of growth at 100 µM in data set [2] stood at 89.6%. The selectivity ratio in data set [4] was more than 9. This molecule displayed a GI50 in data set [3] (THP-1, 72 h) of 55.2 µM. Besides, the inhibition in data set [5] turned out to be 9%. Besides, in data set [6], the CC50 at 72 h was more than 500 µM.
As to `c1ccc(-c2cn(Cc3cc(-c4ccccc4)no3)nn2)cc1`, the “growth inhibition (GI)” value in data set [1] is “inactive”. Moreover, the inhibition of growth at 100 µM in data set [2] was 33.7%. The GI50 in data set [3] (THP-1, 72 h) was more than 100 µM.
For `COc1ccc(-c2cn(Cc3cc(-c4ccc(OC)c(OC)c4)no3)nn2)c(C)c1`, the “growth inhibition (GI)” value in data set [1] is “inactive”. Moreover, the inhibition of growth at 100 µM in data set [2] was determined as 13.6%. Besides, in data set [3] (THP-1, 72 h), the GI50 is more than 100 µM.
Regarding `CCCCCc1ccc(-c2cn(Cc3cc(-c4ccc(OC)cc4)no3)nn2)cc1`, the “growth inhibition (GI)” value in data set [1] was “inactive”. Also, the inhibition of growth at 100 µM in data set [2] worked out at 13.4%. This molecule yielded a GI50 in data set [3] (THP-1, 72 h) of more than 100 µM.
As to `Nc1ccc(-c2cn(Cc3cc(-c4ccccc4)no3)nn2)cc1`, in data set [1], the “growth inhibition (GI)” value is “inactive”. Besides, the inhibition of growth at 100 µM in data set [2] stood at 0%. Further, the GI50 result in data set [3] was “inactive”.
As to `Fc1ccc(-c2cn(Cc3cc(-c4ccccc4)no3)nn2)cc1`, in data set [1], the “growth inhibition (GI)” value is “inactive”. Also, the inhibition of growth at 100 µM in data set [2] is 0%. For the same molecule, in data set [3], the GI50 result is “inactive”.
Regarding `COc1ccc(-c2cn(Cc3cc(-c4ccc(OC)c(OC)c4)no3)nn2)cc1`, the “growth inhibition (GI)” value in data set [1] was “inactive”. For the same molecule, the inhibition of growth at 100 µM in data set [2] was 81.9%. For the same molecule, the selectivity ratio in data set [4] was more than 22. Moreover, in data set [3] (THP-1, 72 h), the GI50 was 22.7 µM. Besides, the inhibition in data set [5] was 9.6%. Besides, the CC50 at 72 h in data set [6] is more than 500 µM.
`COc1ccc(-c2cc(Cn3cc(-c4cc(C)c(C)cc4C)nn3)on2)cc1`: in data set [1], the “growth inhibition (GI)” value is “inactive”. Moreover, in data set [2], the inhibition of growth at 100 µM came out at 33.4%. Further, the GI50 in data set [3] (THP-1, 72 h) is more than 100 µM.
Take `CCCCCc1ccc(-c2cn(Cc3cc(-c4ccc(OC)c(OC)c4)no3)nn2)cc1`: in data set [1], the “growth inhibition (GI)” value is “inactive”. The inhibition of growth at 100 µM in data set [2] was 80.2%. For the same molecule, the selectivity ratio in data set [4] was more than 41. In data set [3] (THP-1, 72 h), this molecule had a GI50 of 12.2 µM. In addition, the inhibition in data set [5] was 0%. Besides, the cytotoxic concentration (CC50) at 72 h in data set [6] was more than 500 µM.
Turning to `COc1ccc2cc(-c3cn(Cc4cc(-c5ccccc5)no4)nn3)ccc2c1`, in data set [1], the “growth inhibition (GI)” value is “inactive”. Further, the inhibition of growth at 100 µM in data set [2] was determined as 43.1%. The molecule further gave a GI50 in data set [3] (THP-1, 72 h) of more than 100 µM.
Turning to `COc1ccc(-c2cn(Cc3cc(-c4ccccc4)no3)nn2)c(C)c1`, the “growth inhibition (GI)” value in data set [1] is “inactive”. Moreover, the inhibition of growth at 100 µM in data set [2] was determined as 18.6%. Moreover, the GI50 in data set [3] (THP-1, 72 h) was more than 100 µM.
The like results for `COc1ccccc1-c1cn(Cc2cc(-c3ccccc3)no2)nn1` were, in that order, “inactive”, 12.4% and more than 100 µM.
As for `CN(C)c1ccc(-c2cn(Cc3cc(-c4ccccc4)no3)nn2)cc1`, in data set [1], the “growth inhibition (GI)” value was “inactive”. Further, in data set [2], the inhibition of growth at 100 µM is 32.6%. Further, the GI50 in data set [3] (THP-1, 72 h) is more than 100 µM.
On the same counts, the results for `COc1ccc(-c2cc(Cn3cc(-c4cc(C)ccc4C)nn3)on2)cc1OC` are “inactive”, 4% and more than 100 µM.
Consider `COc1cc(OC)cc(-c2cn(Cc3cc(-c4ccc(OC)c(OC)c4)no3)nn2)c1`, for which the “growth inhibition (GI)” value in data set [1] is “inactive”. The inhibition of growth at 100 µM in data set [2] is 74.8%. Further, the selectivity ratio in data set [4] was more than 16.5. Further, the GI50 in data set [3] (THP-1, 72 h) amounted to 30.3 µM. The inhibition in data set [5] turned out to be 8.9%. The same molecule displayed a CC50 at 72 h in data set [6] of more than 500 µM.
`COc1ccc(-c2cc(Cn3cc(-c4ccc(F)cc4)nn3)on2)cc1OC`: the “growth inhibition (GI)” value in data set [1] was “inactive”. Besides, the inhibition of growth at 100 µM in data set [2] was determined as 32%. In data set [3] (THP-1, 72 h), this molecule yielded a GI50 of more than 100 µM.
The like results for `COc1ccc(-c2cc(Cn3cc(-c4ccc(CO)cc4)nn3)on2)cc1OC` were, in that order, “inactive”, 43.4% and more than 100 µM.
On the same counts, the results for `COc1ccc(-c2cc(Cn3cc(-c4ccc(N(C)C)cc4)nn3)on2)cc1OC` are “inactive”, 33.9% and more than 100 µM.
The like results for `COc1ccc2cc(-c3cn(Cc4cc(-c5ccc(OC)c(OC)c5)no4)nn3)ccc2c1` were, in that order, “inactive”, 26.2% and more than 100 µM.
With `COc1ccc(-c2cc(Cn3cc(-c4ccc(N)cc4)nn3)on2)cc1OC`, the “growth inhibition (GI)” value in data set [1] was “inactive”. The inhibition of growth at 100 µM in data set [2] was 42.8%. Also, in data set [3] (THP-1, 72 h), the GI50 is more than 100 µM.
